From ChEMBL document CHEMBL4007391, “Tackling Fungal Resistance by Biofilm Inhibitors” (J Med Chem, 2017)
Where a name gives a salt, the structure may show the parent alone.

How the values were obtained:
Candida albicans [1] = assay: Antibiofilm activity against Candida albicans SC5314 clinical isolates after 24 hrs by XTT assay; assay type: functional
Candida albicans [2] = assay: Antibiofilm activity against Candida albicans SC5314 after 24 hrs in presence of miconazole by Cell-Titer Blue assay; assay type: functional
Candida albicans [3] = assay: Antibiofilm activity against Candida albicans CAIF-100 after 24 hrs by Cell-Titer Blue assay; assay type: functional
Candida albicans [4] = assay: Antibiofilm activity against Candida albicans SC5314 after 24 hrs by XTT assay; assay type: functional; conditions: SC5314, 24 h
[5] = Cytotoxicity against human HepG2 assessed as reduction in cell viability after 24 hrs by CellTiter-Glo luminescent assay; assay type: cell-based; conditions: HepG2 cells
Candida albicans [6] = assay: Antibiofilm activity against Candida albicans DAY185 after 24 hrs by XTT assay; assay type: functional
Candida albicans [7] = assay: Antifungal activity against Candida albicans DAY185 by CLSI method; assay type: functional
Candida albicans [8] = assay: Antibiofilm activity against Candida albicans CAF2-1 after 48 hrs by Alamar blue assay; assay type: functional; conditions: CAF2-1, 48 h
Candida albicans [9] = assay: Antibiofilm activity against Candida albicans SC5314 after 48 hrs by Alamar blue assay; assay type: functional; conditions: SC5314, 48 h
Candida albicans [10] = assay: Antibiofilm activity against fluconazole-resistant Candida albicans 29E clinical isolates after 48 hrs by Alamar blue assay; assay type: functional
Candida albicans [11] = assay: Antibiofilm activity against Candida albicans SC5314 after 24 hrs by Cell-Titer Blue assay; assay type: functional
Candida albicans [12] = assay: Inhibition of filament formation of tet-NRG1 expressing Candida albicans after 2 to 24 hrs; assay type: functional

CC[C@H](C)C1NC(=O)[C@@H](CCCN)NC(=O)[C@@H](NC(=O)[C@@H](NC(=O)[C@@H](CCC(=O)O)NC(=O)[C@H](CC(C)C)NC(=O)[C@@H]2CSC([C@@H](N)[C@@H](C)CC)=N2)[C@@H](C)CC)CCCCNC(=O)[C@H](CC(N)=O)NC(=O)[C@@H](CC(=O)O)NC(=O)[C@H](Cc2c[nH]cn2)NC(=O)[C@@H](Cc2ccccc2)NC1=O (stereo partly specified)
IC50 (Candida albicans [1]; Candida albicans, SC5314, 24 h): 17 µM

Oc1c(I)cc(Cl)c2cccnc12 [CLIOQUINOL]
IC50 (Candida albicans [1]; Candida albicans, SC5314, 24 h): 2.6 µM

C[C@H]1[C@H](OC(=O)CCC(=O)O)O[C@@H]2O[C@@]3(C)CC[C@H]4[C@H](C)CC[C@@H]1[C@@]24OO3 [ARTESUNATE]
fractional inhibitory concentration index (FICI) (Candida albicans [2]): <0.069

CN(C)CC/C=C1/c2ccccc2Sc2ccc(Cl)cc21.Cl [CHLORPROTHIXENE HYDROCHLORIDE]
MBIC50 (Candida albicans [3]): 17 µM

CCCCCCCCCCCCCCCC[N+](C)(C)CCN(Cc1ccc(OC)cc1)c1ncccn1 [THONZONIUM BROMIDE]
IC50 (Candida albicans [1]; Candida albicans, SC5314, 24 h): 13 µM

CC(C)c1ccc(CN2CCCC3(CCN(Cc4cccnc4)C3)C2=O)cc1 (stereo unspecified)
IC50 (Candida albicans [4]): 4.59 µM
CC50 at 24 h [5]: 62.7 to 104 µM

CCCCCCCCCC(=O)[C@@H]1C(=O)N[C@@H](CC(C)C)C(=O)N[C@H](C)C(=O)N2CCC[C@H]2C(=O)N[C@@H](C(C)C)C(=O)N[C@H]2CS[C@H]1CNC2=O
IC50 (Candida albicans [6]): 3.4 µM
MIC (Candida albicans [7]): > 200 µM

C[C@H]1[C@@H](O)O[C@@H]2O[C@@]3(C)CC[C@H]4[C@H](C)CC[C@@H]1[C@@]24OO3 [ARTENIMOL]
fractional inhibitory concentration index (FICI) (Candida albicans [2]): 0.145

CC[C@@]1([C@@H]2O[C@@H]([C@H]3O[C@@](O)(CO)[C@H](C)C[C@@H]3C)C[C@@H]2C)CC[C@H]([C@]2(C)CCC3(C[C@H](O)[C@@H](C)[C@@H]([C@@H](C)[C@@H](OC)[C@H](C)C(=O)O)O3)O2)O1 (stereo partly specified)
IC50 (Candida albicans [1]; Candida albicans, SC5314, 24 h): 6.4 µM

CO[C@H]1O[C@@H]2O[C@@]3(C)CC[C@H]4[C@H](C)CC[C@@H]([C@H]1C)[C@@]24OO3
fractional inhibitory concentration index (FICI) (Candida albicans [2]): 0.112

Oc1c(Cl)cc(Cl)c2cccnc12 [CHLOROXINE]
IC50 (Candida albicans [8]): 1.2 to 13.2 µM
IC50 (Candida albicans [9]): 1.2 to 13.2 µM
IC50 (Candida albicans [10]): 1.2 to 13.2 µM
IC50 (Candida albicans [1]; Candida albicans, SC5314, 24 h): 2.7 µM

O=[N+]([O-])c1ccc(O)c2ncccc12 [NITROXOLINE]
IC50 (Candida albicans [8]): 1 to 5.8 µM
IC50 (Candida albicans [9]): 1 to 5.8 µM
IC50 (Candida albicans [10]): 1 to 5.8 µM
MBEC2 (Candida albicans [11]): 3.1 µM

Cc1c(CN2CCC3(CCCN(Cc4ccc(C(C)C)cc4)C3=O)C2)cnn1C (stereo unspecified)
IC50 (Candida albicans [4]): 3.15 µM
CC50 at 24 h [5]: 62.7 to 104 µM

CCCCC(CC)CNC(=N)NC(=N)NCCCCCCNC(=N)NC(=N)NCC(CC)CCCC (stereo unspecified) [ALEXIDINE DIHYDROCHLORIDE]
IC50 (Candida albicans [1]; Candida albicans, SC5314, 24 h): 5.4 µM

C#CCN(C)CCCOc1ccc(Cl)cc1Cl.Cl [CLORGYLINE HYDROCHLORIDE]
MBIC50 (Candida albicans [3]): 24 µM

CN(C)CCOc1ccc(/C(=C(/CCCl)c2ccccc2)c2ccccc2)cc1.O=C(O)CC(O)(CC(=O)O)C(=O)O [TOREMIFENE CITRATE]
MBIC50 (Candida albicans [3]): 19.5 µM

CCN1/C(=C/c2ccc3cc(C)ccc3[n+]2CC)Sc2cc(C)c(C)cc21
IC50 (Candida albicans [8]): 231 to 268 µM
IC50 (Candida albicans [9]): 231 to 268 µM
IC50 (Candida albicans [10]): 231 to 268 µM

CCN(CC)CCOC(=O)C1(C2CCCCC2)CCCCC1.Cl [DICYCLOMINE HYDROCHLORIDE]
MBIC50 (Candida albicans [3]): 60 µM

Cc1cc(/C=C/c2ccc3cc(N(C)C)ccc3[n+]2C)c(C)n1-c1ccccc1.Cc1cc(/C=C/c2ccc3cc(N(C)C)ccc3[n+]2C)c(C)n1-c1ccccc1.O=C([O-])c1cc2ccccc2c(Cc2c(O)c(C(=O)[O-])cc3ccccc23)c1O [PYRVINIUM PAMOATE]
MBEC2 (Candida albicans [11]): 3.9 µM
IC50 (Candida albicans [1]; Candida albicans, SC5314, 24 h): 6.7 µM

CCN(CC)CCN1c2ccccc2Sc2ccc3ccccc3c21
CC50 at 24 h [5]: 50.8 µM
IC50 (Candida albicans [12]): 3.8 µM

Cc1ccccc1OCc1n(CC(=O)OC2CC(C)CCC2C(C)C)c2ccccc2[n+]1C (stereo unspecified)
IC50 (Candida albicans [8]): 9.8 to 24.3 µM
IC50 (Candida albicans [9]): 9.8 to 24.3 µM
IC50 (Candida albicans [10]): 9.8 to 24.3 µM

CO[C@H]1C[C@@H]2CC[C@@H](C)[C@@](O)(O2)C(=O)C(=O)N2CCCC[C@H]2C(=O)O[C@H]([C@H](C)C[C@@H]2CC[C@@H](O)[C@H](OC)C2)CC(=O)[C@H](C)/C=C(\C)[C@@H](O)[C@@H](OC)C(=O)[C@H](C)C[C@H](C)/C=C/C=C/C=C/1C [SIROLIMUS]
CC50 at 24 h [5]: 67.2 µM
IC50 (Candida albicans [12]): 0.514 µM

CN(C)c1ccc(C(=C2C=CC(=[N+](C)C)C=C2)c2ccc(N(C)C)cc2)cc1.[Cl-] [GENTIAN VIOLET]
MBEC2 (Candida albicans [11]): 1.5 µM

CC(C)c1ccc(CN2CCCC3(CCN(CC4CCSCC4)C3)C2=O)cc1 (stereo unspecified)
IC50 (Candida albicans [4]): 3.36 µM
CC50 at 24 h [5]: 62.7 to 104 µM

Oc1c(Br)cc(Br)c2cccnc12 [BROXYQUINOLINE]
MBEC2 (Candida albicans [11]): 1.2 µM

Nc1cc(S(N)(=O)=O)ccc1SSc1ccc(S(N)(=O)=O)cc1N
IC50 (Candida albicans [4]): 3.45 µM
CC50 at 24 h [5]: 106 µM

CCCCCCCCCC(=O)[C@H]1C(=O)N[C@@H](CC(C)C)C(=O)N[C@H](C)C(=O)N2CCC[C@H]2C(=O)N[C@@H](C(C)C)C(=O)N[C@H]2CS[C@H]1CNC2=O
IC50 (Candida albicans [6]): > 200 µM
MIC (Candida albicans [7]): > 200 µM

O=C1c2cccc(O)c2C(=O)c2c(O)cccc21 [DANTHRON]
MBIC50 (Candida albicans [3]): 12 µM

CCc1oc2ccccc2c1C(=O)c1cc(Br)c(O)c(Br)c1 [BENZBROMARONE]
IC50 (Candida albicans [1]; Candida albicans, SC5314, 24 h): 2 µM

Cc1ncc(CN2CCC3(CCCN(Cc4ccc(C(C)C)cc4)C3=O)C2)cn1 (stereo unspecified)
IC50 (Candida albicans [4]): 2.7 µM
CC50 at 24 h [5]: 62.7 to 104 µM

CCCCCCCCCC(=O)C1C(=O)N[C@@H](CC(C)C)C(=O)N[C@H](C)C(=O)N2CCC[C@H]2C(=O)N[C@@H](C(C)C)C(=O)N[C@@H](CC)C(=O)NCC1O (stereo partly specified)
IC50 (Candida albicans [6]): 5.3 µM
MIC (Candida albicans [7]): > 200 µM

Cc1cc(OCCOCC[N+](C)(C)Cc2ccccc2)ccc1C(C)(C)CC(C)(C)C
IC50 (Candida albicans [1]; Candida albicans, SC5314, 24 h): 8.9 µM

C[C@@H]1CC[C@H]2[C@@H](C)C(=O)O[C@@H]3O[C@@]4(C)CC[C@@H]1[C@]32OO4 [ARTEMISININ]
fractional inhibitory concentration index (FICI) (Candida albicans [2]): 0.186

Oc1c(Cl)cc(Cl)c(Cl)c1Cc1c(O)c(Cl)cc(Cl)c1Cl [HEXACHLOROPHENE]
MBEC2 (Candida albicans [11]): 9.3 µM
IC50 (Candida albicans [1]; Candida albicans, SC5314, 24 h): 5.1 µM

THIMEROSAL
IC50 (Candida albicans [1]): 0.2 µM

CCC(CO)N1C(C)=CC(=Cc2sc3ccccc3[n+]2Cc2ccccc2)C=C1C (stereo unspecified)
IC50 (Candida albicans [8]): 1.7 to 119 µM
IC50 (Candida albicans [9]): 1.7 to 119 µM
IC50 (Candida albicans [10]): 1.7 to 119 µM

CC[C@H](C)[C@H](N)C1=N[C@H](C(=O)N[C@@H](CC(C)C)C(=O)N[C@H](CCC(=O)O)C(=O)N[C@@H](C(=O)N[C@@H]2CCCCNC(=O)[C@H](CC(N)=O)NC(=O)[C@@H](CC(=O)O)NC(=O)[C@H](Cc3cnc[nH]3)NC(=O)[C@@H](Cc3ccccc3)NC(=O)[C@H]([C@@H](C)CC)NC(=O)[C@@H](CCCN)NC2=O)[C@@H](C)CC)CS1
IC50 (Candida albicans [4]): 2.13 µM
CC50 at 24 h [5]: 286 µM

CC1OC(CC(=O)O)Cc2c(O)c3c(c(O)c21)C(=O)C=C(C1=CC(=O)c2c(O)c4c(c(O)c2C1=O)CC(CC(=O)O)OC4C)C3=O (stereo unspecified)
IC50 (Candida albicans [4]): 3.31 µM
CC50 at 24 h [5]: 96.1 µM

N=C(NCCCCCCNC(=N)NC(=N)Nc1ccc(Cl)cc1)NC(=N)Nc1ccc(Cl)cc1 [CHLORHEXIDINE]
IC50 (Candida albicans [1]; Candida albicans, SC5314, 24 h): 21.8 µM

CCN1/C(=C\c2ccc3ccccc3[n+]2CC)Sc2cc(C)ccc21
IC50 (Candida albicans [8]): 2.8 to 82.1 µM
IC50 (Candida albicans [9]): 2.8 to 82.1 µM
IC50 (Candida albicans [10]): 2.8 to 82.1 µM

C1CCC(C(CC2CCCCN2)C2CCCCC2)CC1.O=C(O)/C=C\C(=O)O (stereo unspecified) [PERHEXILINE MALEATE]
MBIC50 (Candida albicans [3]): 39 µM

CCCCCCCCCC(=O)[C@@H]1C(=O)N[C@@H](CC(C)C)C(=O)N[C@H](C)C(=O)N2CCC[C@H]2C(=O)N[C@@H]([C@@H](C)CC)C(=O)N[C@H]2CS[C@H]1CNC2=O
IC50 (Candida albicans [6]): 9.1 µM
MIC (Candida albicans [7]): > 200 µM
